Assay results as given in publication PMC9750858, “Rapid biosensor development using plant hormone receptors as reprogrammable scaffolds” (Nature Biotechnology, 2022).
Several values for one entry are separate records, joined by “and”; a condition that tells them apart may be missing. Equal entries are not always repeated.

What was measured:
PYR1^PIRI = target: T1, PYR1^PIRI (Arabidopsis thaliana, UniProt O49686, A160T/E130G/F159T/K59R/N119S/S122Q/S92M/V174A); assay: Split NanoLuc luciferase complementation in yeast, NLuc^N-PYR1^PIRI/NLuc^C-HAB1;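 as to split luciferase luminescence (Fig. 4c source data): relative luminescence averaged over the signal plateau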; type: cell-based; conditions: replicates; for split luciferase luminescence (Fig. 4c source data): ligand pirimiphos-methyl
T1 construct: >PYR1-PIRI; expressed in transfected cells; host or cells: Saccharomyces cerevisiae BY4742
T1 sequence (O49686 other isoform, or with tags, fused parts or gaps K59R/S92M/N119S/S122Q/E130G/F159T/A160T/V174A): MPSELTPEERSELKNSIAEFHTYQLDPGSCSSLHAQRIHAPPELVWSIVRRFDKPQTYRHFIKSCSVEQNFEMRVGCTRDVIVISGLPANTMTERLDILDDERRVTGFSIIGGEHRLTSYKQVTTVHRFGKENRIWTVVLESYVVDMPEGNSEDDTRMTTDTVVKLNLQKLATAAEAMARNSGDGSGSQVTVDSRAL
T1 sequence (Q9CAJ0 179-511, further chain): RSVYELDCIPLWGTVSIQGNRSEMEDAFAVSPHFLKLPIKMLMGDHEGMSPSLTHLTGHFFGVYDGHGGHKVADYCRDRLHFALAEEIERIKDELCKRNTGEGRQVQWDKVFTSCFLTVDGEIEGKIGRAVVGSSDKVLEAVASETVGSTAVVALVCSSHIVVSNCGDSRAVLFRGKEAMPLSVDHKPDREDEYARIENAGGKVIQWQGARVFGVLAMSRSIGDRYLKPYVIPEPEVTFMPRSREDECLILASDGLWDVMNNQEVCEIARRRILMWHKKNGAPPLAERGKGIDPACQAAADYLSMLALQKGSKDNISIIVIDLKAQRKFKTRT

PYR1^DIAZI = PYR1^DIAZI (Arabidopsis thaliana, UniProt O49686, A160V/E8G/F108Y/F159G/L87M/M158V/V81Y); assay: Split NanoLuc luciferase complementation in yeast, NLuc^N-PYR1^DIAZI/NLuc^C-HAB1;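 as to split luciferase luminescence (Fig. 4c source data): relative luminescence averaged over the signal plateau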; type: cell-based; design: >PYR1-DIAZI; expressed in transfected cells; host or cells: Saccharomyces cerevisiae BY4742; conditions: for Sensor signal (Figure 4f top), replicate values: 3 replicates; for split luciferase luminescence (Fig. 4c source data): ligand diazinon, replicates
Chain of PYR1^DIAZI (Q9CAJ0 179-511): as the sequence (Q9CAJ0 179-511, further chain) above
Chain of PYR1^DIAZI (O49686 other isoform, or with tags, fused parts or gaps E8G/V81Y/L87M/F108Y/M158V/F159G/A160V): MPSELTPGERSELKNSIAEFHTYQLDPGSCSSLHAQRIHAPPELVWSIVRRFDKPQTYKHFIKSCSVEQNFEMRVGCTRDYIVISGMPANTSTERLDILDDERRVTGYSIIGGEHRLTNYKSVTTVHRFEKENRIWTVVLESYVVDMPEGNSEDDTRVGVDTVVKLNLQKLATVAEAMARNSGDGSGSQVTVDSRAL

PYR1^WIN-M = target: T2, PYR1^WIN-M (Arabidopsis thaliana, UniProt O49686, A160I/D26G/E4G/F159A/H60P/K59Q/N90S/Y23H); assay: ELISA-like plate assay, immobilized PYR1^WIN-M, biotinylated ΔN-HAB1^T+; type: binding; conditions: for ELISA signal generation, receptor cross-reactivity (source data): replicates; for LOD (lower limit of detection): fivefold dilution
T2 construct: made in house
T2 sequence (O49686 with tags, fused parts or gaps E4G/Y23H/D26G/K59Q/H60P/N90S/F159A/A160I): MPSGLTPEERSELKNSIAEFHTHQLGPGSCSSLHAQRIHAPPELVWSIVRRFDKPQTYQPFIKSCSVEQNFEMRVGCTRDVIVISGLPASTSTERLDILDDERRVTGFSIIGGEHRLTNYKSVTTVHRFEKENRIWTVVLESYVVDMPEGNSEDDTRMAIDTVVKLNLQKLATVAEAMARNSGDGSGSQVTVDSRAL

## COP(=S)(OC)Oc1ccc([N+](=O)[O-])cc1 [Parathion-methyl, parathion-methyl]
PYR1^PIRI; [Agonist] 1e-5 nM
  Sensor signal (Figure 4f bottom), replicate values: 11.8454 and 17.8157 and 9.952
PYR1^PIRI; [Agonist] 0.5 nM
  Sensor signal (Figure 4f bottom), replicate values: 11.1865 and 13.661 and 9.612
PYR1^PIRI; [Agonist] 1 nM
  Sensor signal (Figure 4f bottom), replicate values: 11.9354 and 18.4849 and 9.205
PYR1^PIRI; [Agonist] 10 nM
  Sensor signal (Figure 4f bottom), replicate values: 10.4509 and 13.1415 and 9.783
PYR1^PIRI; [Agonist] 100 nM
  Sensor signal (Figure 4f bottom), replicate values: 9.423 and 12.7271 and 15.286
PYR1^PIRI; [Agonist] 1000 nM
  Sensor signal (Figure 4f bottom), replicate values: 9.542 and 20.0758 and 23.4336
PYR1^PIRI; [Agonist] 10000 nM
  Sensor signal (Figure 4f bottom), replicate values: 13.1296 and 21.6675 and 76.706
PYR1^PIRI; [Agonist] 100000 nM
  Sensor signal (Figure 4f bottom), replicate values: 11.2909 and 29.034 and 72.4977
PYR1^DIAZI; [Agonist] 1e-5 nM
  Sensor signal (Figure 4f top), replicate values: 15.0369 and 11.1106 and 15.282
PYR1^DIAZI; [Agonist] 0.5 nM
  Sensor signal (Figure 4f top), replicate values: 71.449 and 15.1942 and 16.4674
PYR1^DIAZI; [Agonist] 1 nM
  Sensor signal (Figure 4f top), replicate values: 69.4998 and 48.0045 and 15.815
PYR1^DIAZI; [Agonist] 10 nM
  Sensor signal (Figure 4f top), replicate values: 30.1106 and 67.3607 and 15.8069
PYR1^DIAZI; [Agonist] 100 nM
  Sensor signal (Figure 4f top), replicate values: 15.5477 and 62.6829 and 17.0922
PYR1^DIAZI; [Agonist] 1000 nM
  Sensor signal (Figure 4f top), replicate values: 34.4735 and 76.5381 and 29.0859
PYR1^DIAZI; [Agonist] 10000 nM
  Sensor signal (Figure 4f top), replicate values: 73.5456 and 54.5583 and 65.8713
PYR1^DIAZI; [Agonist] 100000 nM
  Sensor signal (Figure 4f top), replicate values: 78.279 and 10.2013 and 20.8749

## O=C(Nc1cccc2cccnc12)c1cn(CCCCCF)c2ccccc12 [AM2201, AM2201 8-quinolinyl carboxamide]
PYR1^WIN-M; cannabinoid at 2 nM
  ELISA signal generation, receptor cross-reactivity (source data): 0.169 and 0.127 and 0.144
PYR1^WIN-M; cannabinoid at 2 μM
  ELISA signal generation, receptor cross-reactivity (source data): 0.112 and 0.114 and 0.096

## CCCCCn1cc(C(=O)c2cccc3ccccc23)cc1-c1ccccc1C [JWH-370]
PYR1^WIN-M; cannabinoid at 2 nM
  ELISA signal generation, receptor cross-reactivity (source data): 0.069 and 0.076 and 0.063
PYR1^WIN-M; cannabinoid at 2 μM
  ELISA signal generation, receptor cross-reactivity (source data): 0.06 and 0.059 and 0.063

## C=C(C)[C@@H]1CCC(C)=C[C@H]1c1c(O)cc(CCCCC)cc1O [Cannabidiol]
PYR1^WIN-M; cannabinoid at 2 nM
  ELISA signal generation, receptor cross-reactivity (source data): 0.109 and 0.094 and 0.096
PYR1^WIN-M; cannabinoid at 2 μM
  ELISA signal generation, receptor cross-reactivity (source data): 0.095 and 0.093 and 0.084

## CCCCCn1cc(C(=O)N2CCN(C)CC2)c2ccccc21 [Mepirapim]
PYR1^WIN-M; cannabinoid at 2 nM
  ELISA signal generation, receptor cross-reactivity (source data): 0.117 and 0.158 and 0.176
PYR1^WIN-M; cannabinoid at 2 μM
  ELISA signal generation, receptor cross-reactivity (source data): 0.111 and 0.116 and 0.103

B1: PYR1^WIN-M: monomeric PYR1-WIN for ELISA: Y23H, D26G, K59Q, H60P, N90S, F159A, A160I (protein, UniProt O49686 1-191, looked up, variant Y23H D26G K59Q H60P N90S F159A A160I)
Abscisic acid receptor PYR1: MPSELTPEERSELKNSIAEFHTHQLGPGSCSSLHAQRIHAPPELVWSIVRRFDKPQTYQPFIKSCSVEQNFEMRVGCTRDVIVISGLPASTSTERLDILDDERRVTGFSIIGGEHRLTNYKSVTTVHRFEKENRIWTVVLESYVVDMPEGNSEDDTRMAIDTVVKLNLQKLATVAEAMARNSGDGSGSQVT
PYR1^WIN-M; spiked blood serum
  LOD (lower limit of detection): 1,105 pM
PYR1^WIN-M; spiked saliva
  LOD (lower limit of detection): 305 pM
PYR1^WIN-M; spiked urine
  LOD (lower limit of detection): 515 pM

B2: PYR1-pirimi: pirimiphos-responsive octuple PYR1 mutant (K59R, S92M, N119S, S122Q, E130G, F159T, A160T, V174A) (protein, UniProt O49686 1-191, looked up, variant K59R S92M N119S S122Q E130G F159T A160T V174A)
Abscisic acid receptor PYR1: MPSELTPEERSELKNSIAEFHTYQLDPGSCSSLHAQRIHAPPELVWSIVRRFDKPQTYRHFIKSCSVEQNFEMRVGCTRDVIVISGLPANTMTERLDILDDERRVTGFSIIGGEHRLTSYKQVTTVHRFGKENRIWTVVLESYVVDMPEGNSEDDTRMTTDTVVKLNLQKLATAAEAMARNSGDGSGSQVT
PYR1^PIRI; [Ligand] 0.01
  split luciferase luminescence (Fig. 4c source data): 2.798 and 2.193 and 2.504
PYR1^PIRI; [Ligand] 0.1
  split luciferase luminescence (Fig. 4c source data): 2.824 and 1.934 and 2.89
PYR1^PIRI; [Ligand] 1
  split luciferase luminescence (Fig. 4c source data): 4.065 and 3.256 and 4.278
PYR1^PIRI; [Ligand] 10
  split luciferase luminescence (Fig. 4c source data): 10.289 and 6.672 and 8.183
PYR1^PIRI; [Ligand] 100
  split luciferase luminescence (Fig. 4c source data): 22.748 and 20.257 and 17.606
PYR1^PIRI; [Ligand] 1000
  split luciferase luminescence (Fig. 4c source data): 23.566 and 22.462 and 20.41
PYR1^PIRI; [Ligand] 10000
  split luciferase luminescence (Fig. 4c source data): 23.974 and 20.5 and 20.202

B3: PYR1-diazi: diazinon-responsive heptuple PYR1 mutant (E8G, V81Y, L87M, F108Y, M158V, F159G, A160V) (protein)
chain: MPSELTPGERSELKNSIAEFHTYQLDPGSCSSLHAQRIHAPPELVWSIVRRFDKPQTYKHFIKSCSVEQNFEMRVGCTRDYIVISGMPANTSTERLDILDDERRVTGYSIIGGEHRLTNYKSVTTVHRFEKENRIWTVVLESYVVDMPEGNSEDDTRVGVDTVVKLNLQKLATVAEAMARNSGDGSGSQVT
modifications: left off: Gal4 DNA-binding domain (from the vector pBD), end not stated, kept
PYR1^DIAZI; [Ligand] (uM) 0.01
  split luciferase luminescence (Fig. 4c source data): 2.821 and 4.017 and 3.928
PYR1^DIAZI; [Ligand] (uM) 0.1
  split luciferase luminescence (Fig. 4c source data): 3.172 and 4.215 and 4.029
PYR1^DIAZI; [Ligand] (uM) 1
  split luciferase luminescence (Fig. 4c source data): 4.479 and 4.68 and 4.503
PYR1^DIAZI; [Ligand] (uM) 10
  split luciferase luminescence (Fig. 4c source data): 10.058 and 10.652 and 11.029
PYR1^DIAZI; [Ligand] (uM) 100
  split luciferase luminescence (Fig. 4c source data): 21.801 and 16.912 and 16.034
PYR1^DIAZI; [Ligand] (uM) 1000
  split luciferase luminescence (Fig. 4c source data): 25.73 and 20.742 and 19.283
PYR1^DIAZI; [Ligand] (uM) 10000
  split luciferase luminescence (Fig. 4c source data): 25.492 and 21.692 and 23.422
